For 27 compounds, IC50 results are on record in patent US20250353855A1, “HETEROCYCLIC AND HETEROARYL COMPOUNDS FOR TREATING HUNTINGTON'S DISEASE” (PTC THERAPEUTICS, INC., priority 2022, published 2025).

One assay deals with Endogenous Huntingtin Protein. The assay is described as follows: Endogenous Huntingtin Protein Assay (ELISA-based MSD electrochemiluminescence). In kind it is cell-based. Conditions: MSD plates coated with MW1 (expanded polyglutamine) or MAB2166 capture antibody; lysates. The procedure:
Compounds of Formula (T) were tested using the Meso Scale Discovery (MSD) Assay provided in International Application No. PCT/US2016/066042, filed on Dec. 11, 2016 and claiming priority to U.S. Provisional Application 62/265,652 filed on Dec. 10, 2015, the entire contents of which are incorporated herein by reference.
The Endogenous Huntingtin Protein assay used in Example 1 was developed using the ELISA-based MSD electrochemiluminescence assay platform.
Meso Scale Discovery (MSD) 96-well or 384-well plates were coated overnight at 4° C. with MW1 (expanded polyglutamine) or MAB2166 monoclonal antibody (for capture) at a concentration of 1 μg/mL in PBS (30 μL per well). Plates were then washed three times with 300 μL wash buffer (0.05% Tween-20 in PBS) and blocked (100 μL blocking buffer; 5% BSA in PBS) for 4-5 hours at room temperature with rotational shaking and then washed three times with wash buffer.
Samples (25 μL) were transferred to the antibody-coated MSD plate and incubated overnight at 4° C. After removal of the lysates, the plate was washed three times with wash buffer, and 25 μL of #5656S (Cell signaling; rabbit monoclonal) secondary antibody (diluted to 0.25 μg/mL in 0.05% Tween-20 in blocking buffer) was added to each well and incubated with shaking for 1 Hour at room temperature. Following incubation with the secondary antibody, the wells were rinsed with wash buffer after which 25 μL of goat anti-rabbit SULFO TAG secondary detection antibody (required aspect of the MSD system) (diluted to 0.25 μg/mL in 0.05% Tween-20 in blocking buffer) was added to each well and incubated with shaking for 1 hour at room temperature. After rinsing three times with wash buffer, 150 μL of read buffer T with surfactant (MSD) were added to each empty well, and the plate was imaged on a SI 6000 imager (MSD) according to manufacturers' instructions provided for 96- or 384-well plates.
(ELISA stands for enzyme-linked immunosorbent assay.)
As for `COc1nc2cc(O)c(-c3cc4ccn([C@H]5CC(C)(C)NC(C)(C)[C@H]5F)c4nn3)cc2o1` [Cpd 25, 6-{7-[(3S,4S)-3-fluoro-2,2,6,6-tetramethylpiperidin-4-yl]-7H-pyrrolo[2,3-c]pyridazin-3-yl}-2-methoxy-1,3-benzoxazol-5-ol], the IC50 was below 100 nM.

The compound `COc1cnc2cc(-c3cc4ccn([C@H]5CC(C)(C)NC(C)(C)[C@H]5F)c4nn3)c(O)cc2n1` [Cpd 33, 7-{7-[(3S,4S)-3-fluoro-2,2,6,6-tetramethylpiperidin-4-yl]-7H-pyrrolo[2,3-c]pyridazin-3-yl}-3-methoxyquinoxalin-6-ol] yielded an IC50 below 100 nM.

Still in this assay, the particulars now being: MSD plates coated with MW1 (expanded polyglutamine) or MAB2166 capture antibody; lysates; read-out: IC50.
As to `CC1(C)C[C@H](n2ccc3cc(-c4cc5nc(C(F)(F)F)oc5cc4O)nnc32)[C@H](F)C(C)(C)N1` [Cpd 24, 5-{7-[(3S,4S)-3-fluoro-2,2,6,6-tetramethylpiperidin-4-yl]-7H-pyrrolo[2,3-c]pyridazin-3-yl}-2-(trifluoromethyl)-1,3-benzoxazol-6-ol], the IC50 fell in the range of 100 to 500 nM. The same measure, in the same setting: in the case of `Cn1c(=O)cnc2cc(-c3cc4ccn([C@H]5CC(C)(C)NC(C)(C)[C@H]5F)c4nn3)c(O)cc21` [Cpd 26, 6-{7-[(3S,4S)-3-fluoro-2,2,6,6-tetramethylpiperidin-4-yl]-7H-pyrrolo[2,3-c]pyridazin-3-yl}-7-hydroxy-1-methylquinoxalin-2(1H)-one] it was below 100 nM. Consider `Cc1nc2cc(O)c(-c3cc4nnn(C5CC(C)(C)NC(C)(C)C5)c4nn3)cc2s1` [Cpd 27, 2-methyl-6-[3-(2,2,6,6-tetramethylpiperidin-4-yl)-3H-[1,2,3]triazolo[4,5-c]pyridazin-6-yl]-1,3-benzothiazol-5-ol], for which the IC50 was below 100 nM. Still for that read-out and setting: under `CC1(C)C[C@H](n2ccc3cc(-c4cc5ccccc5cc4O)nnc32)[C@H](F)C(C)(C)N1` [Cpd 28, 3-{7-[(3S,4S)-3-fluoro-2,2,6,6-tetramethylpiperidin-4-yl]-7H-pyrrolo[2,3-c]pyridazin-3-yl}naphthalen-2-ol] stands below 100 nM; under `CC1(C)C[C@H](n2ccc3cc(-c4cc5ccncc5cc4O)nnc32)[C@H](F)C(C)(C)N1` [Cpd 29, 6-{7-[(3S,4S)-3-fluoro-2,2,6,6-tetramethylpiperidin-4-yl]-7H-pyrrolo[2,3-c]pyridazin-3-yl}isoquinolin-7-ol], below 100 nM. The same measure, in the same setting: under `Cc1cnc2cc(-c3cc4ccn([C@H]5CC(C)(C)NC(C)(C)[C@H]5F)c4nn3)c(O)cc2c1` [Cpd 30, 7-{7-[(3S,4S)-3-fluoro-2,2,6,6-tetramethylpiperidin-4-yl]-7H-pyrrolo[2,3-c]pyridazin-3-yl}-3-methylquinolin-6-ol] stands below 100 nM; under `Cc1ccc2cc(O)c(-c3cc4ccn([C@H]5CC(C)(C)NC(C)(C)[C@H]5F)c4nn3)cc2n1` [Cpd 31, 7-{7-[(3S,4S)-3-fluoro-2,2,6,6-tetramethylpiperidin-4-yl]-7H-pyrrolo[2,3-c]pyridazin-3-yl}-2-methylquinolin-6-ol], below 100 nM; under `Cc1ccc2cc(-c3cc4ccn([C@H]5CC(C)(C)NC(C)(C)[C@H]5F)c4nn3)c(O)cc2n1` [Cpd 32, 6-{7-[(3S,4S)-3-fluoro-2,2,6,6-tetramethylpiperidin-4-yl]-7H-pyrrolo[2,3-c]pyridazin-3-yl}-2-methylquinolin-7-ol], below 100 nM. The same measure, in the same setting: under `Cc1cnc2cc(O)c(-c3cc4ccn([C@H]5CC(C)(C)NC(C)(C)[C@H]5F)c4nn3)cc2c1` [Cpd 35, 6-{7-[(3S,4S)-3-fluoro-2,2,6,6-tetramethylpiperidin-4-yl]-7H-pyrrolo[2,3-c]pyridazin-3-yl}-3-methylquinolin-7-ol] stands below 100 nM; under `CC1(C)C[C@H](n2ccc3cc(-c4cc5oc(=O)[nH]c5cc4O)nnc32)[C@H](F)C(C)(C)N1` [Cpd 36, 6-{7-[(3S,4S)-3-fluoro-2,2,6,6-tetramethylpiperidin-4-yl]-7H-pyrrolo[2,3-c]pyridazin-3-yl}-5-hydroxy-1,3-benzoxazol-2(3H)-one], below 100 nM. On to `Cn1nc2cc(O)c(-c3cc4ccn([C@H]5CC(C)(C)NC(C)(C)[C@H]5F)c4nn3)cc2n1` [Cpd 37, 6-{7-[(3S,4S)-3-fluoro-2,2,6,6-tetramethylpiperidin-4-yl]-7H-pyrrolo[2,3-c]pyridazin-3-yl}-2-methyl-2H-benzotriazol-5-ol], for which the IC50 is below 100 nM. The same measure, in the same setting: under `Cn1cc2cc(O)c(-c3cc4ccn([C@H]5CC(C)(C)NC(C)(C)[C@H]5F)c4nn3)cc2n1` [Cpd 38, 6-{7-[(3S,4S)-3-fluoro-2,2,6,6-tetramethylpiperidin-4-yl]-7H-pyrrolo[2,3-c]pyridazin-3-yl}-2-methyl-2H-indazol-5-ol] stands below 100 nM. The same measure, in the same setting: in the case of `Cc1ncc2cc(O)c(-c3cc4ccn([C@H]5CC(C)(C)NC(C)(C)[C@H]5F)c4nn3)cc2n1` [Cpd 39, 7-{7-[(3S,4S)-3-fluoro-2,2,6,6-tetramethylpiperidin-4-yl]-7H-pyrrolo[2,3-c]pyridazin-3-yl}-2-methylquinazolin-6-ol] it was below 100 nM. The same measure, in the same setting: under `CC1(C)C[C@H](n2ccc3cc(-c4cc5ncc(F)cc5cc4O)nnc32)[C@H](F)C(C)(C)N1` [Cpd 40, 3-fluoro-7-{7-[(3S,4S)-3-fluoro-2,2,6,6-tetramethylpiperidin-4-yl]-7H-pyrrolo[2,3-c]pyridazin-3-yl}quinolin-6-ol] stands below 100 nM; under `Cn1nnc2cc(-c3cc4ccn([C@H]5CC(C)(C)NC(C)(C)[C@H]5F)c4nn3)c(O)cc21` [Cpd 41, 5-{7-[(3S,4S)-3-fluoro-2,2,6,6-tetramethylpiperidin-4-yl]-7H-pyrrolo[2,3-c]pyridazin-3-yl}-1-methyl-1H-benzotriazol-6-ol], below 100 nM. On to `Cn1nnc2cc(O)c(-c3cc4ccn([C@H]5CC(C)(C)NC(C)(C)[C@H]5F)c4nn3)cc21` [Cpd 42, 6-{7-[(3S,4S)-3-fluoro-2,2,6,6-tetramethylpiperidin-4-yl]-7H-pyrrolo[2,3-c]pyridazin-3-yl}-1-methyl-1H-benzotriazol-5-ol], for which the IC50 is below 100 nM. Turning to `Cc1nc2cc(O)c(-c3cc4c(nn3)N([C@H]3CCNC5(CC5)C3)CC4)cc2o1` [Cpd 43, 6-{7-[(7S)-4-azaspiro[2.5]octan-7-yl]-6,7-dihydro-5H-pyrrolo[2,3-c]pyridazin-3-yl}-2-methyl-1,3-benzoxazol-5-ol], the IC50 is below 100 nM.

For `Cc1nc2cc(O)c(-c3cc4c(nn3)N([C@H]3CC(C)(C)NC(C)(C)[C@H]3F)CC4)cc2o1` [Cpd 44, 6-{7-[(3S,4S)-3-fluoro-2,2,6,6-tetramethylpiperidin-4-yl]-6,7-dihydro-5H-pyrrolo[2,3-c]pyridazin-3-yl}-2-methyl-1,3-benzoxazol-5-ol], the IC50 was below 100 nM. Take `CC1(C)C[C@H](N2CCc3cc(-c4cc5nccnc5cc4O)nnc32)[C@H](F)C(C)(C)N1` [Cpd 45, 7-{7-[(3S,4S)-3-fluoro-2,2,6,6-tetramethylpiperidin-4-yl]-6,7-dihydro-5H-pyrrolo[2,3-c]pyridazin-3-yl}quinoxalin-6-ol]: the IC50 is below 100 nM. The same measure, in the same setting: under `Cc1nc2cc(-c3cc4c(nn3)N([C@H]3CC(C)(C)NC(C)(C)[C@H]3F)CC4)c(O)cc2[nH]1` [Cpd 46, 5-{7-[(3S,4S)-3-fluoro-2,2,6,6-tetramethylpiperidin-4-yl]-6,7-dihydro-5H-pyrrolo[2,3-c]pyridazin-3-yl}-2-methyl-1H-benzimidazol-6-ol] stands below 100 nM. On to `CC1(C)C[C@H](N2CCc3cc(-c4cc5nn[nH]c5cc4O)nnc32)[C@H](F)C(C)(C)N1` [Cpd 47, 5-{7-[(3S,4S)-3-fluoro-2,2,6,6-tetramethylpiperidin-4-yl]-6,7-dihydro-5H-pyrrolo[2,3-c]pyridazin-3-yl}-1H-benzotriazol-6-ol], for which the IC50 is below 100 nM.

As for `Cc1nc2cc(-c3cc4c(nn3)N([C@H]3CC(C)(C)NC(C)(C)[C@H]3F)CC4)c(O)cc2n1C` [Cpd 48, 5-{7-[(3S,4S)-3-fluoro-2,2,6,6-tetramethylpiperidin-4-yl]-6,7-dihydro-5H-pyrrolo[2,3-c]pyridazin-3-yl}-1,2-dimethyl-1H-benzimidazol-6-ol], the IC50 was below 100 nM.

With `Oc1cc2nccnc2cc1-c1cc2c(nn1)N([C@H]1CCNC3(CC3)C1)CC2` [Cpd 49, 7-{7-[(7S)-4-azaspiro[2.5]octan-7-yl]-6,7-dihydro-5H-pyrrolo[2,3-c]pyridazin-3-yl}quinoxalin-6-ol], the IC50 is below 100 nM. On the same count and under the same terms, under `Cn1nnc2cc(-c3cc4c(nn3)N([C@H]3CC(C)(C)NC(C)(C)[C@H]3F)CC4)c(O)cc21` [Cpd 50, 5-{7-[(3S,4S)-3-fluoro-2,2,6,6-tetramethylpiperidin-4-yl]-6,7-dihydro-5H-pyrrolo[2,3-c]pyridazin-3-yl}-1-methyl-1H-benzotriazol-6-ol] stands below 100 nM; under `Cc1nc2cc(O)c(-c3cc4c(nn3)N([C@H]3CC(C)(C)NC(C)(C)[C@H]3F)CC4)cc2nc1C` [Cpd 51, 7-{7-[(3S,4S)-3-fluoro-2,2,6,6-tetramethylpiperidin-4-yl]-6,7-dihydro-5H-pyrrolo[2,3-c]pyridazin-3-yl}-2,3-dimethylquinoxalin-6-ol], below 100 nM.

In general, IC50 refers to the concentration at which inhibition is half-maximal.
